Experiments:
[1] = tested on: Murine Lewis Lung cells; details: BDF1 mice; intravenously on Day 1
Protocol: Murine Lewis Lung cells are intravenously injected to BDF1 mice. Mean survival as well as body weight change and tumor free survivors on Day 72 are endpoints of the study. […] Treatment is administered once daily intraperitoneally on Days 1-4 and 7-11.

[2] = tested on: CCRF-CEM human leukemia cell line; assay: Triphosphate accumulation and retention in CCRF-CEM cells; format: cell-based
Description: Drugs: Gemcitabine-5′-elaidate was provided by Clavis Pharma (Oslo, Norway), tetra hydro uridine (THU) was from Calbiochem (Merck, Darmstadt, Germany), dipyridamole and ara-C were from Sigma-Aldrich (St. Louis, Mo., USA) and dFdC was from Eli-Lilly (Indianapolis, Ind., USA). The radioactively labeled drugs were obtained from Moravek (Brea, Calif., USA); the drugs were labeled with tritium on the 5-C site of the base. A mix of radioactive and non-radioactive compounds was made for exposure of cells; dFdC and CP-4126 were used at a final concentration of 8.9 μM and a specific activity of 586 and 391 mCi/mmol, respectively.
Cell lines: For the experiments the CCRF-CEM human leukemia cell line and its dCK negative variant (CEM/dCK−) were used. The cell lines were cultured in RPMI medium (BioWhittaker, Verviers, Belgium) supplemented with 10% fetal calf serum (PAA laboratories, Pasching, Austria) and HEPES buffer (BioWhittaker). Of the nucleoside influx transporters, the CEM cell line only expresses the equilibrative nucleoside transporter (hENT) and not the concentrative nucleoside transporter (hCNT). Belt et al. Adv. Enzyme Regul., 1993, 33, 235-52. Dipyridamole (DP) was used to inhibit the influx of the drugs by hENT. In order to get a clean picture, THU was also added to inhibit deamination of ara-C and dFdC.
Triphosphate accumulation: Cells were treated with 1 and 10 μM of dFdC, while for the lipophilic analogs 10 and 100 μM was used. The cells were incubated for 60 minutes and retention of the triphosphates was investigated after 60 and 120 minutes incubation in drug-free medium. Dipyridamole was added to inhibit drug influx by the hENT transporter. After incubation the cell pellet was resuspended in ice-cold PBS and incubated for 20 minutes at 4° C. with 40% trichloroacetic acid. After centrifugation (10,000 g, 10 min, 4° C.) the supernatant was treated with a 2-fold excess of trioctylamine/1,1,2-trichlorotrifluorethane (1:4) and spun down (10,000 g, 1 min) and the aqueous phase was stored at −20° C. until analysis by HPLC on a Whatman Partisphere SAX column (GE healthcare, Chalfont St. Giles, UK) using gradient (dFdC-TP) elution as described earlier. Noordhuis et al., Leuk. Res., 1996, 20, 127-34; Ruiz van Haperen, et al., Biochem. Pharmacol., 1994, 48, 1327-39.

[3] = tested on: xenograft mouse models; assay: Correlation of hENT1 mRNA levels and sensitivity to gemcitabine in xenograft mouse models (FIG. 6); format: in vivo; details: higher expression level of hENT1 mRNA
Description: FIG. 6 depicts the correlation of hENT1 mRNA levels and sensitivity to gemcitabine in xenograft mouse models. There are many nucleoside transporters and each may move nucleoside analog drugs across the membrane with unique kinetics. A cancer cell which has lower levels nucleoside transporters will be less efficient at transporting these drugs into the cells, reducing the efficacy of the drug. For example a tumor that has low levels of hENT1 is less sensitive to treatment with gemcitabine. FIG. 6 depicts the correlation of hENT1 mRNA levels and sensitivity to gemcitabine in xenograft mouse models. In some aspects low expression of hENT1 on pancreatic tumor cells linked to poor survival after gemcitabine therapy. In addition, hENT1 deficient tumor cells are resistant to pyrimidine nucleoside analogs in vitro. For example, hENT1 mRNA levels are co-related to the sensitivity to gemcitabine in xenograft mouse models.

[4] = tested on: Co-26 murine colon cancer cells; assay: Antitumor effect in Co-26 liver metastasis model; format: in vivo; details: single dose
Protocol: Antitumor effect of single dose of gemcitabine-5′-elaidic acid ester or gemcitabine is tested in Balb/C female mice injected with Co-26 murine colon cancer cells in the spleen (a liver metastasis model). […] The activity of gemcitabine is similar.

[5] = tested on: pancreatic cancer; assay: Survival of pancreatic cancer patients receiving gemcitabine monotherapy (FIG. 8); format: in vivo, human; details: hypothetical plot
Protocol: Patients suffering from pancreatic cancer are administered gemcitabine monotherapy. Post mortem studies of the patients' tumors determine the levels of hENT1 expression in the tumors. FIG. 8 depicts a Kaplan-Meier plot of survival for patients receiving the gemcitabine monotherapy Patients with high hENT1 expression (dotted line) outperform those with areas of hENT1-low tumor.

[6] = tested on: human colon cancer Co5776; assay: Antitumor activity in human colon xenograft Co5776; format: in vivo; details: NCR female mice; intraperitoneally every third day five times; gemcitabine 120 mg/kg, gemcitabine-5′-elaidic acid ester 40 mg/kg
Protocol: (§1) Fragments of human colon cancers Co5776 and Co6044 are implanted subcutaneously in NCR female mice (7-8 mice/group). Gemcitabine (120 mg/kg) and gemcitabine-5′-elaidic acid ester (40 mg/kg) are administered intraperitoneally, every third day for five times.
NCr female mice implanted subcutaneously with human colon carcinoma fragments, Co5776, are treated intraperitoneally. Two different schedules of gemcitabine-5′-elaidic acid ester are administered, once weekly times 2 (Days 11 and 18), and every third day times 5 (Days 11, 14, 17, 20, and 23). Antitumor activity of gemcitabine-5′-elaidic acid ester is similar for 150 mg/kg once weekly, administered twice or 40 mg/kg every third day administered five times.

[7] = tested on: CEM cells; assay: Intracellular dFdCTP level in CEM cells with or without dipyridamole (HPLC); format: cell-based, human; details: 10 μM
Protocol: hENT1 can inhibited in vitro by various agents including dipyridamole, NBMPR, and NBI. In order to test whether gemcitabine-5′-elaidate entry into the cells is independent of a nucleoside transporter such as hENT1, dipyridamole is used to block hENT1. The intracellular level of dFdCTP is determined in CEM cells after 60 minutes exposure to either dFdC or gemcitabine-5′-elaidate, with or without the addition of dipyridamole (DP). The compounds are administered at 10 μM, and the triphosphates are determined using HPLC. Deamination is blocked using tetrahydrouridine.

[8] = tested on: human colon cancer Co6044; assay: Antitumor activity in human colon xenograft Co6044 (intraperitoneal); format: in vivo; details: NCR female mice; intraperitoneally every third day five times; gemcitabine 120 mg/kg, gemcitabine-5′-elaidic acid ester 40 mg/kg
Protocol: as §1

O=P1(N(CCCl)CCCl)NCCCO1 (stereo not drawn) [CTX, Cyclophosphamide]
antitumor activity [1]: highly active
toxicity [1]: non-toxic

Nc1ccn([C@@H]2O[C@H](CO)[C@@H](O)C2(F)F)c(=O)n1 [gemcitabine, 2′2′-difluorodeoxycytidine]
retention of dFdC-TP concentration after washing away the drugs ([2]; 60 and 120 minutes in drug-free medium): decreased after washing away the drugs
triphosphates formed after 60 minutes incubation ([2]; dFdC 1 and 10 μM, lipophilic analog 10 and 100 μM): more triphosphates were formed
effect of dipyridamole on dFdC-TP accumulation ([2]; hENT inhibited by dipyridamole): abolishing accumulation of dFdC-TP
response in relation to hENT1 mRNA expression level [3]: better response
activity compared with gemcitabine [4]: similar
survival (Kaplan-Meier), high hENT1 vs hENT1-low tumor [5]: outperform
antitumor effect [6]: Significant antitumor effect
intracellular triphosphate (dFdCTP) level with DP ([7]; 60 minutes exposure, with dipyridamole, tetrahydrouridine present): below level of detection
level of triphosphate over time in the absence of DP ([7]; after exposure, without dipyridamole): decreases with time
antitumor effect [8]: Significant antitumor effect

— patent publication US20130005678A1, “Methods and Compositions for Treating or Ameliorating Cancer Using Gemcitabine-5'-Elaidate” (CLAVIS PHARMA ASA, priority 2010, published 2013)
